# System: 616215-338-R-J1-PDC complex spheroid growth, % test/control
# Test: Anticancer human tumor 616215-338-R-J1-PDC patient-derived colon adenocarcinoma cell line growth inhibition [Asc]
# Settings: for IC50: curve of first compound; for viability, T/C: stronger effect = lower value
# How it was run: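 Complex solid-tumor spheroids incorporating human endothelial and mesenchymal stem cells received single agents or combinations over half-log dilution ranges anchored to clinical Cmax.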
# [1] = second compound 0.1 µM, first compound 0.0316 µM
# [2] = second compound 0.1 µM, first compound 0.1 µM
# [3] = second compound 0.1 µM, first compound 0.316 µM
# [4] = second compound 0.1 µM, first compound 1 µM
# [5] = second compound 0.316 µM, first compound 0.0316 µM
# [6] = second compound 0.316 µM, first compound 0.1 µM
# [7] = second compound 0.316 µM, first compound 0.316 µM
# [8] = second compound 0.316 µM, first compound 1 µM
# [9] = second compound 1 µM, first compound 0.0316 µM
# [10] = second compound 1 µM, first compound 0.1 µM
# [11] = second compound 1 µM, first compound 0.316 µM
# [12] = second compound 1 µM, first compound 1 µM
# [13] = second compound 3.16 µM, first compound 0.0316 µM
# [14] = second compound 3.16 µM, first compound 0.1 µM
# [15] = second compound 3.16 µM, first compound 0.316 µM
# [16] = second compound 3.16 µM, first compound 1 µM
# [17] = second compound 10 µM, first compound 0.0316 µM
# [18] = second compound 10 µM, first compound 0.1 µM
# [19] = second compound 10 µM, first compound 0.316 µM
# [20] = second compound 10 µM, first compound 1 µM
# 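Further: spheroids exposed to agents for seven days before readout.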
# 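Wherever viability, T/C is given: 100% = DMSO vehicle control viability.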
structure (smiles),measurement,setting,value
C#Cc1c(F)ccc2cc(O)cc(-c3ncc4c(N5CC6CCC(C5)N6)nc(OCC56CCCN5CC(F)C6)nc4c3F)c12 (stereo not given) + Cc1c(S(C)(=O)=O)c(-c2cc(F)cc(N3CCN(c4ccc(NS(=O)(=O)c5ccc(NC(CCN6CCC(C(=O)OCCCP(=O)(O)O)CC6)CSc6ccccc6)c(S(=O)(=O)C(F)(F)F)c5)cc4)CC3)c2)c(-c2ccc(Cl)cc2)n1C(C)C,IC50,second compound 0.1 µM,> 10000 nM
same,IC50,second compound 0.316 µM,> 10000 nM
same,IC50,second compound 1 µM,6410 nM
same,IC50,second compound 3.16 µM,< 31.6 nM
same,IC50,second compound 10 µM,< 31.6 nM
same,"viability, T/C",[1],92.2%
same,"viability, T/C",[2],88.2%
same,"viability, T/C",[3],93.3%
same,"viability, T/C",[4],98.2%
same,"viability, T/C","second compound 0.1 µM, first compound 3.16 µM",87.5%
same,"viability, T/C","second compound 0.1 µM, first compound 10 µM",56.6%
same,"viability, T/C",[5],96.6%
same,"viability, T/C",[6],91.9%
same,"viability, T/C",[7],88.8%
same,"viability, T/C",[8],97.4%
same,"viability, T/C","second compound 0.316 µM, first compound 3.16 µM",72.1%
same,"viability, T/C","second compound 0.316 µM, first compound 10 µM",52%
same,"viability, T/C",[9],68.8%
same,"viability, T/C",[10],70%
same,"viability, T/C",[11],66.8%
same,"viability, T/C",[12],68.2%
same,"viability, T/C","second compound 1 µM, first compound 3.16 µM",61.1%
same,"viability, T/C","second compound 1 µM, first compound 10 µM",42.8%
same,"viability, T/C",[13],39.5%
same,"viability, T/C",[14],38.8%
same,"viability, T/C",[15],40.3%
same,"viability, T/C",[16],39.6%
same,"viability, T/C","second compound 3.16 µM, first compound 3.16 µM",34.1%
same,"viability, T/C","second compound 3.16 µM, first compound 10 µM",9.96%
same,"viability, T/C",[17],29.7%
same,"viability, T/C",[18],25.5%
same,"viability, T/C",[19],29.8%
same,"viability, T/C",[20],21.8%
same,"viability, T/C","second compound 10 µM, first compound 3.16 µM",10.8%
same,"viability, T/C","second compound 10 µM, first compound 10 µM",0.92%
CNC(C)C(=O)NC1CN(S(=O)(=O)c2cccc(S(=O)(=O)N3CCC4CCC(C(=O)NC(c5ccccc5)c5ccccc5)N4C(=O)C(NC(=O)C(C)NC)C3)c2)CCC2CCC(C(=O)NC(c3ccccc3)c3ccccc3)N2C1=O (stereo not given) + Cc1c(S(C)(=O)=O)c(-c2cc(F)cc(N3CCN(c4ccc(NS(=O)(=O)c5ccc(NC(CCN6CCC(C(=O)OCCCP(=O)(O)O)CC6)CSc6ccccc6)c(S(=O)(=O)C(F)(F)F)c5)cc4)CC3)c2)c(-c2ccc(Cl)cc2)n1C(C)C,IC50,second compound 0.1 µM,> 1000 nM
same,IC50,second compound 0.316 µM,> 1000 nM
same,IC50,second compound 1 µM,> 1000 nM
same,IC50,second compound 3.16 µM,< 3.16 nM
same,IC50,second compound 10 µM,< 3.16 nM
same,"viability, T/C","second compound 0.1 µM, first compound 0.00316 µM",94%
same,"viability, T/C","second compound 0.1 µM, first compound 0.01 µM",99.3%
same,"viability, T/C",[1],92.2%
same,"viability, T/C",[2],94.8%
same,"viability, T/C",[3],100%
same,"viability, T/C",[4],97.5%
same,"viability, T/C","second compound 0.316 µM, first compound 0.00316 µM",96.8%
same,"viability, T/C","second compound 0.316 µM, first compound 0.01 µM",97.4%
same,"viability, T/C",[5],92%
same,"viability, T/C",[6],97%
same,"viability, T/C",[7],87.9%
same,"viability, T/C",[8],94.7%
same,"viability, T/C","second compound 1 µM, first compound 0.00316 µM",73.1%
same,"viability, T/C","second compound 1 µM, first compound 0.01 µM",76%
same,"viability, T/C",[9],73.2%
same,"viability, T/C",[10],76%
same,"viability, T/C",[11],69.6%
same,"viability, T/C",[12],68.7%
same,"viability, T/C","second compound 3.16 µM, first compound 0.00316 µM",45.5%
same,"viability, T/C","second compound 3.16 µM, first compound 0.01 µM",40%
same,"viability, T/C",[13],40.1%
same,"viability, T/C",[14],39.5%
same,"viability, T/C",[15],36.2%
same,"viability, T/C",[16],28.6%
same,"viability, T/C","second compound 10 µM, first compound 0.00316 µM",26.5%
same,"viability, T/C","second compound 10 µM, first compound 0.01 µM",23.9%
same,"viability, T/C",[17],27.9%
same,"viability, T/C",[18],26.4%
same,"viability, T/C",[19],22.4%
same,"viability, T/C",[20],19.1%
Cc1nc(N2CCC3(CC2)COC(C)C3N)c(CO)nc1Sc1ccnc(N)c1Cl (stereo not given) + Cc1c(S(C)(=O)=O)c(-c2cc(F)cc(N3CCN(c4ccc(NS(=O)(=O)c5ccc(NC(CCN6CCC(C(=O)OCCCP(=O)(O)O)CC6)CSc6ccccc6)c(S(=O)(=O)C(F)(F)F)c5)cc4)CC3)c2)c(-c2ccc(Cl)cc2)n1C(C)C,IC50,second compound 0.1 µM,> 3000 nM
same,IC50,second compound 0.316 µM,> 3000 nM
same,IC50,second compound 1 µM,> 3000 nM
same,IC50,second compound 3.16 µM,< 9.49 nM
same,IC50,second compound 10 µM,< 9.49 nM
same,"viability, T/C","second compound 0.1 µM, first compound 0.00949 µM",97.8%
same,"viability, T/C","second compound 0.1 µM, first compound 0.03 µM",102%
same,"viability, T/C","second compound 0.1 µM, first compound 0.0949 µM",100%
same,"viability, T/C","second compound 0.1 µM, first compound 0.3 µM",95.9%
same,"viability, T/C","second compound 0.1 µM, first compound 0.949 µM",84.5%
same,"viability, T/C","second compound 0.1 µM, first compound 3 µM",76.7%
same,"viability, T/C","second compound 0.316 µM, first compound 0.00949 µM",96.7%
same,"viability, T/C","second compound 0.316 µM, first compound 0.03 µM",92.8%
same,"viability, T/C","second compound 0.316 µM, first compound 0.0949 µM",94.5%
same,"viability, T/C","second compound 0.316 µM, first compound 0.3 µM",94.9%
same,"viability, T/C","second compound 0.316 µM, first compound 0.949 µM",76.6%
same,"viability, T/C","second compound 0.316 µM, first compound 3 µM",71.3%
same,"viability, T/C","second compound 1 µM, first compound 0.00949 µM",68%
same,"viability, T/C","second compound 1 µM, first compound 0.03 µM",67.8%
same,"viability, T/C","second compound 1 µM, first compound 0.0949 µM",68.9%
same,"viability, T/C","second compound 1 µM, first compound 0.3 µM",66.7%
same,"viability, T/C","second compound 1 µM, first compound 0.949 µM",61.7%
same,"viability, T/C","second compound 1 µM, first compound 3 µM",55.6%
same,"viability, T/C","second compound 3.16 µM, first compound 0.00949 µM",38.2%
same,"viability, T/C","second compound 3.16 µM, first compound 0.03 µM",38.4%
same,"viability, T/C","second compound 3.16 µM, first compound 0.0949 µM",34.2%
same,"viability, T/C","second compound 3.16 µM, first compound 0.3 µM",36.8%
same,"viability, T/C","second compound 3.16 µM, first compound 0.949 µM",25.9%
same,"viability, T/C","second compound 3.16 µM, first compound 3 µM",21.9%
same,"viability, T/C","second compound 10 µM, first compound 0.00949 µM",29.4%
same,"viability, T/C","second compound 10 µM, first compound 0.03 µM",25.6%
same,"viability, T/C","second compound 10 µM, first compound 0.0949 µM",30.2%
same,"viability, T/C","second compound 10 µM, first compound 0.3 µM",21.1%
same,"viability, T/C","second compound 10 µM, first compound 0.949 µM",9.17%
same,"viability, T/C","second compound 10 µM, first compound 3 µM",6.63%
